A short description of data set [1]: GLP 28-day oral toxicology study of compound A22 in Sprague Dawley rats. Format: in vivo. To be noted: rat, in vivo, once daily oral gavage, di-HCl or di-p-toluenesulfonate salt, read-out: NOAEL (no-observed-adverse-effect-level) dose. How it is done:
(§1) The toxicology studies of compound A22 were performed in Sprague Dawley rats and Beagle dogs. In GLP, 28-day (once daily, 7 days per week) studies, compound A22 was administered as a di-HCl salt or di-p-toluenesulfonate salt by oral gavage. The results are summarized in Tables 1 and 2, where HNSTD is highest nonseverely toxic dose; NOAEL is no-observed-adverse-effect-level; and STDio is severely toxic dose in 10%.

In another data set the test system is Sprague Dawley rats. The description is as above. Format: in vivo. To be noted: once daily oral gavage, di-HCl or di-p-toluenesulfonate salt. How it is done: as §1
Data set [2] can be described thus: Steady state toxicokinetics of compound A22 in Sprague Dawley rats (28-day study). The conditions noted are these: rat, in vivo, oral gavage. How it is done: as §1
Data set [3] is described as follows: GLP 28-day oral toxicology study of compound A22 in Beagle dogs. It counts as in vivo. The conditions noted are these: dog, in vivo, once daily oral gavage, di-HCl or di-p-toluenesulfonate salt, read-out: NOAEL (no-observed-adverse-effect-level) dose. How it is done: as §1
The next data set concerns Beagle dogs. Described as above. It counts as in vivo. To be noted: once daily oral gavage, di-HCl or di-p-toluenesulfonate salt. How it is done: as §1
Data set [4] can be described thus: Steady state toxicokinetics of compound A22 in Beagle dogs (28-day study). The conditions noted are these: dog, in vivo, oral gavage. How it is done:
as §1

A further data set in a line: Solubility in water. Format: physicochemical. To be noted: in water at 25° C.
Setting [5] is: female rats, 0.7 mg/kg/day (NOAEL).
The mark [6] stands for this setting: female rats, 2.5 mg/kg/day (STD10).
Setting [7] is: male rats, 0.7 mg/kg/day (NOAEL).
Setting [8] is: male rats, 2.5 mg/kg/day (STD10).
Setting [9] is: female dogs, 0.06 mg/kg/day (NOAEL).
[10] abbreviates: female dogs, 0.2 mg/kg/day (HNSTD).
Setting [11] is: male dogs, 0.06 mg/kg/day (NOAEL).
The mark [12] stands for this setting: male dogs, 0.2 mg/kg/day (HNSTD).

A word on the NOAEL: it is the highest dose or exposure tested at which no adverse effect was seen. The AUC(0-t) is the area under the concentration-time curve up to a stated or last time point. Low values mean low exposure, high ones high exposure. Broadly, the Cmax is the maximum level reached in the sampled fluid or tissue.

The structures appear in SMILES notation.

As for `Cn1ncc(-c2nc(N[C@H]3CC[C@H](N)CC3)ncc2Cl)c1CC1CC1` [A22, (1r,4r)-N^1-(5-chloro-4-(5-(cyclopropylmethyl)-1-methyl-1H-pyrazol-4-yl)pyrimidin-2-yl)cyclohexane-1,4-diamine], the no-observed-adverse-effect level (NOAEL) at 28 day in data set [1] amounted to 0.7 mg/kg/day; in data set [3], 0.06 mg/kg/day. The “STD10 (severely toxic dose in 10%) dose” value in the data set on Sprague Dawley rats amounted to 2.5 mg/kg/day. Further, the AUC(0-t) in data set [2] (setting [5]) is 160 ng·h/mL; in data set [2] (setting [6]), 2390 ng·h/mL; in data set [2] (setting [7]) it was 152 ng·h/mL; in data set [2] (setting [8]), 2520 ng·h/mL; in data set [4] (setting [9]), 129 ng·h/mL; in data set [4] (setting [10]), 471 ng·h/mL. Moreover, the AUC(0-t) was determined as 102 ng·h/mL in data set [4] (setting [11]) and 567 ng·h/mL in data set [4] (setting [12]). The Cmax in data set [2] (setting [5]) came to 13.6 ng/mL; in data set [2] (setting [6]) it was 156 ng/mL; in data set [2] (setting [7]), 13.7 ng/mL; in data set [2] (setting [8]), 184 ng/mL; in data set [4] (setting [9]), 7.55 ng/mL; in data set [4] (setting [10]) it was 30.6 ng/mL. Moreover, the Cmax amounted to 6.38 ng/mL in data set [4] (setting [11]) and 34.4 ng/mL in data set [4] (setting [12]). In addition, the “HNSTD (highest nonseverely toxic dose)” value in the data set on Beagle dogs turned out to be 0.2 mg/kg/day.
Regarding `Cc1ccc(S(=O)(=O)O)cc1.Cc1ccc(S(=O)(=O)O)cc1.Cn1ncc(-c2nc(N[C@H]3CC[C@H](N)CC3)ncc2Cl)c1CC1CC1` [crystalline di-p-toluenesulfonate salt, di-p-toluensulfonate of (1r,4r)-N^1-(5-chloro-4-(5-(cyclopropylmethyl)-1-methyl-1H-pyrazol-4-yl)pyrimidin-2-yl)cyclohexane-1,4-diamine], in the data set “Solubility in water”, the solubility result is “about 2 mg/mL”.

The record behind these values is patent US20240207268A1, “PYRAZOLYLPYRIMIDINES FOR TREATING MALIGNANT SOLID TUMOR” (BIOTHERYX, INC., priority 2021, published 2024).
